Calls of active or inactive are those of the source. The calls are words filed in the database; no cut-off is given here.
Assays:
[1] = system: Ebolavirus; test: Antiviral activity against Ebolavirus Kikwit infected in human HeLa cells assessed as reduction in viral glycoprotein levels preincubated with cells for 2 hrs followed by viral infection measured after 48 hrs by immunostaining based assay; assay type: functional, cell-based; details: Orthoebolavirus, Kikwit, HeLa
[2] = system: Ebolavirus; test: Antiviral activity against GFP-fused Ebolavirus infected in TERT-immortalized HMVEC assessed as reduction in viral replication preincubated with cells followed by viral infection measured after 3 to 4 days by fluorescence assay; assay type: functional
[3] = Lipophilicity, log D of the compound after 30 mins by HPLC/UV method; assay type: physicochemical
[4] = Cytotoxicity against human MT4 cells assessed as reduction in cell viability after 4 to 5 days by Cell-Titer Glo assay; assay type: cell-based; details: MT4 cells
[5] = system: Ebolavirus; test: Antiviral activity against Ebolavirus Kikwit infected in human macrophages preincubated with cells for 2 hrs followed by viral infection measured after 48 hrs; assay type: functional; details: Orthoebolavirus, Kikwit
[6] = (§1) Half life in human plasma at 2 uM by LC/MS/MS analysis; assay type: ADME, cell-free
[7] = Cytotoxicity against human Hep2 cells assessed as reduction in cell viability after 4 to 5 days by Cell-Titer Glo assay; assay type: cell-based, HEp-2; details: HEp-2 cells
[8] = system: Human orthopneumovirus; test: Antiviral activity against Respiratory syncytial virus A2 infected in human Hep2 cells assessed as reduction of virus-induced cytopathic effect after 4 days by Cell-Titer Glo assay; assay type: functional, cell-based; details: human respiratory syncytial virus, A2, HEp-2, 96 h
[9] = (§2) Cytotoxicity against human HuH7 cells assessed as reduction in cell viability after 3 days by calcein-AM dye based fluorescence assay; parameters: species or system Huh-7; details: Huh-7 cells
[10] = system: Huh-7; test: as §2; details: huh-7, 72 h, 72 h
[11] = system: Plasma; test: as §1; assay type: ADME, cell-free; details: 2 µM
[12] = system: Hepatitis C virus; test: Antiviral activity against Hepatitis C virus genotype 1b infected in human HuH7 cells preincubated with cells for 3 days followed by viral infection by luciferase assay; assay type: functional, cell-based, Hepacivirus hominis
[13] = system: Ebolavirus; test: Antiviral activity against Ebolavirus infected in rhesus monkey assessed as increase in survival at 10 mg/kg, iv administered daily starting from day 3 post infection followed by 3 mg/kg for 11 days measured up to 28 days; assay type: functional, organism-based
[14] = system: Ebolavirus; test: Antiviral activity against Ebolavirus in phase-1 acute meningoencephalytis patient assessed as viral clearance in plasma at 150 mg, iv qd administered daily for 2 days followed by 225 mg for 14 days; assay type: functional, organism-based
[15] = system: Ebolavirus; test: Antiviral activity against Ebolavirus in phase-1 acute meningoencephalytis patient assessed as viral clearance in CNS at 150 mg, iv qd administered daily for 2 days followed by 225 mg for 14 days; assay type: functional, organism-based
[16] = system: Ebolavirus; test: Antiviral activity against Ebolavirus infected in newborn infant assessed as viral clearance; assay type: functional
[17] = system: Ebolavirus; test: Antiviral activity against Ebolavirus infected in rhesus monkey assessed as reduction in systemic viremia at 3 mg/kg, iv qd administered continuously starting from day 2 post infection for 12 days; assay type: functional, organism-based

Structure (SMILES) | EC50 [1] | EC50 ([2]; Orthoebolavirus, HMVEC) | logD at 0.5 h [3] | CC50 [4] | EC50 [5] | half-life at 2 µM [6] | also measured
C[C@H](NP(=O)(OC[C@H]1O[C@@](C#N)(c2ccc3c(N)ncnn23)[C@H](O)[C@@H]1O)Oc1ccccc1)C(=O)OC1CCCC1 (stereo partly specified) | 633 nM | 160 nM | 1.3 | 8800 nM | 120 nM | 26.3 h | 
CCC(CC)COC(=O)[C@@H](C)NP(=O)(OC[C@H]1O[C@@](C#N)(c2ccc3c(N)ncnn23)[C@H](O)[C@@H]1O)Oc1ccccc1 (stereo partly specified) | 550 nM | 518 nM | 2.1 | 42000 nM | 729 nM | 26.4 h | 
CC(C)OC(=O)[C@H](C)N[P@@](=O)(OC[C@H]1O[C@@](C#N)(c2ccc3c(N)ncnn23)[C@H](O)[C@@H]1O)Oc1ccccc1 | 1840 nM | 367 nM | 1.1 | 21000 nM | 297 nM | 26 h | 
N#C[C@@]1(c2ccc3c(N)ncnn23)O[C@H](CO)[C@@H](O)[C@H]1O [GS-441524] | > 20000 nM | 780 nM | 0.3 | > 57000 nM | > 20000 nM |  | CC50 [7]: > 100000 nM; EC50 [8]: 530 nM; CC50 at 72 h [9]: > 88000 nM
CCC(CC)COC(=O)[C@H](C)N[P@@](=O)(OC[C@H]1O[C@@](C#N)(c2ccc3c(N)ncnn23)[C@H](O)[C@@H]1O)Oc1ccccc1 | 80 nM | 53 nM | 2 |  | 111 nM |  | 
CCC(CC)COC(=O)[C@H](C)N[P@](=O)(OC[C@H]1O[C@@](C#N)(c2ccc3c(N)ncnn23)[C@H](O)[C@@H]1O)Oc1ccccc1 (mixture of isomers) | 170 nM |  | 2.1 | 2000 nM | 100 nM |  | CC50 [7]: 9200 nM; EC50 [8]: 27 nM; EC50 [2]: 120 nM; CC50 [10]: 17000 nM; t1/2 [11]: 3.25 h; EC50 [12]: 23 nM
CCOC(=O)[C@H](Cc1ccccc1)NP(=O)(OC[C@H]1O[C@@](C#N)(c2ccc3c(N)ncnn23)[C@H](O)[C@@H]1O)Oc1ccccc1 (stereo partly specified) | 4380 nM | 587 nM | 1.6 | 15000 nM | 270 nM | 26.4 h | 
CCC(CC)COC(=O)[C@H](C)N[P@](=O)(OC[C@H]1O[C@@](C#N)(c2ccc3c(N)ncnn23)[C@H](O)[C@@H]1O)Oc1ccccc1 |  |  |  |  |  |  | Activity [13]: Active; Activity [14]: Active; Activity [15]: Active; Activity [16]: Active; Activity [17]: Active
CCOC(=O)[C@H](C)NP(=O)(OC[C@H]1O[C@@](C#N)(c2ccc3c(N)ncnn23)[C@H](O)[C@@H]1O)Oc1ccccc1 (stereo partly specified) | 2420 nM | 636 nM | 0.6 | 13000 nM |  | 26.4 h | 
CCC(CC)OC(=O)[C@H](C)NP(=O)(OC[C@H]1O[C@@](C#N)(c2ccc3c(N)ncnn23)[C@H](O)[C@@H]1O)Oc1ccccc1 (stereo partly specified) | 1810 nM | 845 nM | 1.6 | > 100000 nM |  | 14.3 h | 

— ChEMBL document CHEMBL4007399, “Discovery and Synthesis of a Phosphoramidate Prodrug of a Pyrrolo[2,1-f][triazin-4-amino] Adenine C-Nucleoside (GS-5734) for the Treatment of Ebola and Emerging Viruses” (J Med Chem, 2017)
